Measurements taken from ChEMBL document CHEMBL1128201, “Selective and potent monoamine oxidase type B inhibitors: 2-substituted 5-aryltetrazole derivatives” (J Med Chem, 1995).

Legend:
[1] = Selectivity for the B form was estimated by the IC50(MAO A)/IC50(MAO B) ratio.
[2] = molecular target: T1, Amine oxidase [flavin-containing] A (Rattus norvegicus, UniProt P21396); experiment: In vitro inhibitory activity against rat brain Monoamine oxidase A
T1 sequence (P21396 whole entry): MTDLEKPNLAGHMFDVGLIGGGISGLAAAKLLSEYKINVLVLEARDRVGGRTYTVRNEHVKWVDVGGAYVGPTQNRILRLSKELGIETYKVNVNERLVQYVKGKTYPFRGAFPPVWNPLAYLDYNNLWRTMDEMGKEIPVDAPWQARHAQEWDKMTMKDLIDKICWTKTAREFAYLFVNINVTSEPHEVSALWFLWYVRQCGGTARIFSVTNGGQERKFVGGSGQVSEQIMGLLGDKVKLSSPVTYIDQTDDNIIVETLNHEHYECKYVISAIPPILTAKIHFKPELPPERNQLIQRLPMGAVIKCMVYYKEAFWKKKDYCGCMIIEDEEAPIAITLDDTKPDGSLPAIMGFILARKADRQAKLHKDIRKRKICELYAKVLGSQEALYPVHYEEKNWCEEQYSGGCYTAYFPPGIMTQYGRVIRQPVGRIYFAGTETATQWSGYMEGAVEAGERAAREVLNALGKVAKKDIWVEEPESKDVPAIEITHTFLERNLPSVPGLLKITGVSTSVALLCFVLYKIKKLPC

[3] = molecular target: T2, Amine oxidase [flavin-containing] B (Rattus norvegicus, UniProt P19643); experiment: In vitro inhibitory activity against rat brain Monoamine oxidase B
T2 sequence (P19643 whole entry): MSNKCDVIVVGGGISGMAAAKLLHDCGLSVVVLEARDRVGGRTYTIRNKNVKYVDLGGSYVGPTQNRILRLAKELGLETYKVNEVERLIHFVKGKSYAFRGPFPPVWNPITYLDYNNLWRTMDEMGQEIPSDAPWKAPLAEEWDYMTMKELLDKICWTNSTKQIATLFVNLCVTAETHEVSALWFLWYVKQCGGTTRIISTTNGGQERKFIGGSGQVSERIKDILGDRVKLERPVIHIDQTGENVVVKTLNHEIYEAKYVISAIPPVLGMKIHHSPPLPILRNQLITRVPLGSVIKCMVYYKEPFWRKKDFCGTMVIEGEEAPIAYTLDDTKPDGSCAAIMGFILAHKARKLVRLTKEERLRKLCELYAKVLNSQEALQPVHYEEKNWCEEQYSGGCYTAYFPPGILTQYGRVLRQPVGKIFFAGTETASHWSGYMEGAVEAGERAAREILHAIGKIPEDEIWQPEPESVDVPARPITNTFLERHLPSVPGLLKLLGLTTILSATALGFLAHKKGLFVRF

[4] = molecular target: T1, Amine oxidase [flavin-containing] A; experiment: Ex vivo inhibitory activity against rat brain monoamine oxidase (MAO) type A at a dose of 5 mg/kg administered orally at 0.5 hr; type: functional, organism-based; parameters: dose 5 mg/kg, route oral; conditions: po
[5] = molecular target: T1, Amine oxidase [flavin-containing] A; experiment: Ex vivo inhibitory activity against rat brain monoamine oxidase (MAO) type A at a dose of 5 mg/kg administered orally at 1 hr; type: functional, organism-based; parameters: dose 5 mg/kg, route oral; conditions: po
[6] = molecular target: T1, Amine oxidase [flavin-containing] A; experiment: Ex vivo inhibitory activity against rat brain monoamine oxidase (MAO) type A at a dose of 5 mg/kg administered orally at 4 hr; type: functional, organism-based; parameters: dose 5 mg/kg, route oral; conditions: po
[7] = molecular target: T2, Amine oxidase [flavin-containing] B; experiment: Compound was evaluated for inhibitory activity against monoamine oxidase (MAO) type B by reversibility test after dialysis at a concentration of 0.1 uM; type: functional; conditions: read-out: Control
[8] = molecular target: T2, Amine oxidase [flavin-containing] B; experiment: Compound was evaluated for inhibitory activity against monoamine oxidase (MAO) type B by reversibility test before dialysis at a concentration of 0.1 uM; type: functional; conditions: read-out: Control
[9] = molecular target: T2, Amine oxidase [flavin-containing] B; experiment: Ex vivo inhibitory activity against rat brain monoamine oxidase (MAO) type B at a dose of 5 mg/kg administered orally at 0.5 hr; type: functional, organism-based; parameters: dose 5 mg/kg, route oral; conditions: po
[10] = molecular target: T2, Amine oxidase [flavin-containing] B; experiment: Ex vivo inhibitory activity against rat brain monoamine oxidase (MAO) type B at a dose of 5 mg/kg administered orally at 1 hr; type: functional, organism-based; parameters: dose 5 mg/kg, route oral; conditions: po
[11] = molecular target: T2, Amine oxidase [flavin-containing] B; experiment: Ex vivo inhibitory activity against rat brain monoamine oxidase (MAO) type B at a dose of 5 mg/kg administered orally at 4 hr; type: functional, organism-based; parameters: dose 5 mg/kg, route oral; conditions: po
[12] = molecular target: T1, Amine oxidase [flavin-containing] A; experiment: Ex vivo inhibitory activity against rat brain monoamine oxidase (MAO) type A at a dose of 5 mg/kg administered orally at 24 hr; type: functional, organism-based; parameters: dose 5 mg/kg, route oral; conditions: po
[13] = molecular target: T2, Amine oxidase [flavin-containing] B; experiment: Inhibitory activity against monoamine oxidase (MAO) type B by reversibility test after dialysis at a concentration of 0.001 uM; conditions: read-out: Control
[14] = molecular target: T2, Amine oxidase [flavin-containing] B; experiment: Inhibitory activity against monoamine oxidase (MAO) type B by reversibility test after dialysis at a concentration of 0.1 uM; conditions: read-out: Control
[15] = molecular target: T2, Amine oxidase [flavin-containing] B; experiment: Inhibitory activity against monoamine oxidase (MAO) type B by reversibility test before dialysis at a concentration of 0.001 uM; conditions: read-out: Control
[16] = molecular target: T2, Amine oxidase [flavin-containing] B; experiment: Inhibitory activity against monoamine oxidase (MAO) type B by reversibility test before dialysis at a concentration of 0.1 uM; conditions: read-out: Control
[17] = molecular target: T2, Amine oxidase [flavin-containing] B; experiment: Ex vivo inhibitory activity against rat brain monoamine oxidase (MAO) type B at a dose of 5 mg/kg administered orally at 24 hr; type: functional, organism-based; parameters: dose 5 mg/kg, route oral; conditions: po

SMILES	IC50 [2] [µM]	IC50 [3] [µM]	other results
N#CCCCCCCn1nnc(-c2ccc(-c3ccccc3)cc2)n1			Selectivity [1]: 8.5
COc1cccc(COc2ccc(-c3nnn(CCC#N)n3)cc2)c1	> 100		
OCCn1nnc(-c2ccccc2)n1	> 100	89	
Cc1ccc(COc2ccc(-c3nnn(CCO)n3)cc2)cc1	> 100		
N#CCCn1nnc(-c2ccc(-c3ccccc3)cc2)n1		0.84	
Cc1cccc(COc2ccc(-c3nnn(CCO)n3)cc2)c1	> 100		
OCCn1nnc(-c2ccc(OCc3ccccc3Cl)cc2)n1		9	
N#CCCCCn1nnc(-c2ccc(-c3ccccc3)cc2)n1	26	6	
Cc1ccc(COc2ccc(-c3nnn(CCC#N)n3)cc2)cc1	> 100		
N#CCCn1nnc(-c2ccc(OCc3ccccc3Cl)cc2)n1	> 100	0.03	
OCCn1nnc(-c2ccc(OCc3ccccc3)cc2)n1	64	0.03	inhibition at 5 mg/kg [4]: 5%; inhibition at 5 mg/kg [5]: 4%; inhibition at 5 mg/kg [6]: 4%; remaining activity at 0.1 µM [7]: 107%; remaining activity at 0.1 µM [8]: 19%; inhibition at 5 mg/kg [9]: 84%; inhibition at 5 mg/kg [10]: 84%; Selectivity [1]: 2100; inhibition at 5 mg/kg [11]: 63%
N#CCCn1nnc(-c2ccccc2)n1	54	> 100	
OCCCn1nnc(-c2ccc(-c3ccccc3)cc2)n1	4.6	1.36	
OCCn1nnc(-c2ccncc2)n1	> 100	> 100	
COc1ccc(COc2ccc(-c3nnn(CCO)n3)cc2)cc1	> 100		
Cc1cccc(COc2ccc(-c3nnn(CCC#N)n3)cc2)c1	> 100		
N#CCCn1nnc(-c2ccc(OCc3ccccc3I)cc2)n1	> 100	> 270	
OCCn1nnc(-c2ccc(OCc3ccc(Cl)cc3)cc2)n1		0.32	
N#CCCn1nnc(-c2ccc([N+](=O)[O-])cc2)n1	18	13.4	
N#CCCn1nnc(-c2ccc(OCc3ccccc3)cc2)n1		0.002	inhibition at 5 mg/kg [4]: 6%; inhibition at 5 mg/kg [5]: 12%; inhibition at 5 mg/kg [12]: 2%; inhibition at 5 mg/kg [6]: 0%; remaining activity at 0.001 µM [13]: 85%; remaining activity at 0.1 µM [14]: 54%; remaining activity at 0.001 µM [15]: 65%; remaining activity at 0.1 µM [16]: 12%; inhibition at 5 mg/kg [9]: 76%; inhibition at 5 mg/kg [10]: 74%; inhibition at 5 mg/kg [17]: 24%; Selectivity [1]: 37000; inhibition at 5 mg/kg [11]: 69%
OCCn1nnc(-c2ccc(Cl)cc2)n1	66	38	
